Reference: patent publication US20140031227A1, “HERBICIDAL COMPOSITIONS COMPRISING 4-AMINO-3-CHLORO-5-FLUORO-6-(4-CHLORO-2-FLUORO-3-METHOXYPHENYL) PYRIDINE-2-CARBOXYLIC ACID OR A DERIVATIVE THEREOF AND GLYPHOSATE OR GLUFOSINATE” (DOW AGROSCIENCES LLC, priority 2012, published 2014)

What was measured:
[1] = tested on: SCPMA (Schoenoplectus maritimus (L.) Lye or Bolboschoenus maritimus (L.) Palla, sea clubrush); assay: Example II in-water applied mixtures, transplanted paddy rice weeds, greenhouse: SCPMA; type: in vivo; conditions: Compound A Acid alone
Experimental: Weed seeds or nutlets of the desired test plant species were planted in puddled soil (mud) prepared by mixing a shredded, non-sterilized mineral soil (50.5 percent silt, 25.5 percent clay, and 24 percent sand, with a pH of about 7.6 and an organic matter content of about 2.9 percent) and water at a 1:1 volumetric ratio. The prepared mud was dispensed in 365 mL aliquots into 16-ounce (oz.) non-perforated plastic pots with a surface area of 86.59 square centimeters (cm^2) leaving a headspace of 3 centimeters (cm) in each pot. Mud was allowed to dry overnight prior to planting or transplanting. Rice seeds were planted in Sun Gro MetroMix® 306 planting mixture, which typically has a pH of 6.0 to 6.8 and an organic matter content of about 30 percent, in plastic plug trays. Seedlings at the second or third leaf stage of growth were transplanted into 840 mL of mud contained in 32-oz. non-perforated plastic pots with a surface area of 86.59 cm^2 4 days prior to herbicide application. The paddy was created by filling the headspace of the pots with 2.5 to 3 cm of water. […] The plants were grown for 4-22 days in a greenhouse with an approximate 14 hr photoperiod which was maintained at about 29′C during the day and 26° C. during the night. Nutrients were added as Osmocote® (19:6:12, N:P:K+minor nutrients) at 2 g per 16-oz. pot and 4 g per 32-oz. pot. Water was added on a regular basis to maintain the paddy flood, and supplemental lighting was provided with overhead metal halide 1000-Watt lamps as necessary. The plants were employed for testing when they reached the first through fourth true leaf stage.
(§1) Treatments consisted of the acid or esters of 4-amino-3-chloro-5-fluoro-6-(4-chloro-2-fluoro-3-methoxy-phenyl)pyridine-2-carboxylic acid (compound A) each formulated as an SC (suspension concentrate) and various herbicidal components alone and in combination. Forms of compound A were applied on an acid equivalent basis.
For formulated compounds, a measured amount was placed in an individual 100 or 200 mL glass vial and was dissolved in a volume of 1.25% (v/v) Agri-Dex® crop oil concentrate to obtain application solutions.
Applications were made by injecting with a pipetter appropriate amounts of the application solutions, individually and sequentially, into the aqueous layer of the paddy. Control plants were treated in the same manner with the solvent blank. Applications were made so that all treated plant material received the same concentrations of acetone and crop oil concentrate.
(§2) The treated plants and control plants were placed in a greenhouse as described above and water was added as needed to maintain a paddy flood. After approximately 3 weeks the condition of the test plants as compared with that of the untreated plants was determined visually and scored on a scale of 0 to 100 percent where 0 corresponds to no injury or growth inhibition and 100 corresponds to complete kill.
Colby's equation was used to determine the herbicidal effects expected from the mixtures (Colby, S. R. 1967. Calculation of the synergistic and antagonistic response of herbicide combinations. Weeds 15:20-22.).

[2] = tested on: VIOTR (Viola tricolor L., wild violet); assay: Example IV postemergence foliar-applied mixtures, general weed control, greenhouse: VIOTR; type: in vivo; conditions: Compound A Benzyl Ester alone
Experimental: Seeds or nutlets of the desired test plant species were planted in Sun Gro Metro-Mix® 360 planting mixture, which typically has a pH of 6.0 to 6.8 and an organic matter content of about 30 percent, in plastic pots with a surface area of 84.6 square centimeters (cm^2). […] The plants were grown for 7-31 days (d) in a greenhouse with an approximate 15 hour (h) photoperiod which was maintained at about 23-29° C. during the day and 22-28° C. during the night. Nutrients (Peters Excel® 15-5-15 5-Ca 2-Mg) and water were added on a regular basis and supplemental lighting was provided with overhead metal halide 1000-Watt lamps as necessary. The plants were employed for testing when they reached the first, second, or third true leaf stage.
as §1, with “the benzyl ester” for “esters”, “(Compound A),” for “(compound A)”, “SC,” for “SC (suspension concentrate)”
Other herbicidal components were applied on an acid equivalent or active ingredient basis and included the 5-enolpyruvylshikimate-3-phosphate synthase (EPSPS)-inhibiting herbicide, glyphosate dimethylamine salt, formulated as Durango DMA® and the glutamine synthase (GS)-inhibiting herbicide, glufosinate ammonium, formulated as Ignite® 280.
For treatments comprised of formulated compounds, measured amounts of compounds were placed individually in 25 mL glass vials and diluted in a volume of 1.25% (v/v) Agri-dex crop oil concentrated to obtain 12× stock solutions. […] Application solutions were prepared by adding an appropriate amount of each stock solution (typically 1 mL) and diluted to the appropriate final concentrations with the addition of 10 mL of an aqueous mixture of 1.25% (v/v) Agri-dex crop oil concentrate so that the final spray solutions contained 1.25% (v/v) Agri-dex crop oil concentrate.
All stock solutions and applications solutions were visually inspected for compound compatibility prior to application. Compound requirements are based upon a 12 mL application volume at a rate of 187 liters per hectare (L/ha). […]
as §2, with “watered by sub-irrigation” for “water was added as needed”, “prevent wash-off of the test compounds.” for “maintain a paddy flood.”, “weeks,” for “weeks”, “kill. […]” for “kill.”

SMILES	Visual Weed Control (%) - 21 DAA SCPMA Obs ([1]; 8.75 gae/ha) [%]	Visual Weed Control (%) - 21 DAA SCPMA Obs ([1]; 17.5 gae/ha) [%]	Visual Weed Control (%) - 21 DAA SCPMA Obs ([1]; 35 gae/ha) [%]	Visual Weed Control (%) - 18 DAA VIOTR Obs ([2]; 2 gae/ha) [%]	Visual Weed Control (%) - 18 DAA VIOTR Obs ([2]; 4 gae/ha) [%]
COc1c(Cl)ccc(-c2nc(C(=O)O)c(Cl)c(N)c2F)c1F [Compound A Acid, 4-amino-3-chloro-6-(4-chloro-2-fluoro-3-methoxyphenyl)-5-fluoropyridine-2-carboxylic acid]	0	0	0	–	–
COc1c(Cl)ccc(-c2nc(C(=O)OCc3ccccc3)c(Cl)c(N)c2F)c1F [Compound A Benzyl Ester]	–	–	–	15	20
